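Cultured in 96-well plates, cells were exposed to test compound for 48 hours across five concentrations. Definition used: TGI = concentration required for complete inhibition of growth.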
How the values were obtained:
Assay in all cases: NCI anticancer screen, dose series, 48 h
786-0 renal = test system: 786-0 renal
A549 NSCLC = test system: A549 NSCLC
ACHN renal = test system: ACHN renal
BT-549 breast = test system: BT-549 breast
CAKI-1 renal = test system: CAKI-1 renal
CCRF-CEM leukemia = test system: CCRF-CEM leukemia
COLO 205 colon = test system: COLO 205 colon
DU-145 prostate = test system: DU-145 prostate
EKVX NSCLC = test system: EKVX NSCLC
HCT-116 colon = test system: HCT-116 colon
HCT-15 colon = test system: HCT-15 colon
HL-60(TB) leukemia = test system: HL-60(TB) leukemia
HOP-62 NSCLC = test system: HOP-62 NSCLC
HS 578T breast = test system: HS 578T breast
HT29 colon = test system: HT29 colon
IGROV1 ovarian = test system: IGROV1 ovarian
K-562 leukemia = test system: K-562 leukemia
KM12 colon = test system: KM12 colon
LOX IMVI melanoma = test system: LOX IMVI melanoma
M14 melanoma = test system: M14 melanoma
MALME-3M melanoma = test system: MALME-3M melanoma
MCF7 breast = test system: MCF7 breast
MDA-MB-231 breast = test system: MDA-MB-231 breast
MDA-MB-435 = test system: MDA-MB-435
MDA-N = test system: MDA-N
MOLT-4 leukemia = test system: MOLT-4 leukemia
NCI-H23 lung = test system: NCI-H23 lung
NCI-H460 lung = test system: NCI-H460 lung
NCI-H522 lung = test system: NCI-H522 lung
NCI/ADR-RES ovarian = test system: NCI/ADR-RES ovarian
OVCAR-3 ovarian = test system: OVCAR-3 ovarian
OVCAR-4 ovarian = test system: OVCAR-4 ovarian
OVCAR-5 ovarian = test system: OVCAR-5 ovarian
OVCAR-8 ovarian = test system: OVCAR-8 ovarian
PC-3 prostate = test system: PC-3 prostate
RPMI-8226 leukemia = test system: RPMI-8226 leukemia
RXF 393 renal = test system: RXF 393 renal
SF-268 CNS = test system: SF-268 CNS
SF-295 CNS = test system: SF-295 CNS
SK-MEL-28 melanoma = test system: SK-MEL-28 melanoma
SK-MEL-5 melanoma = test system: SK-MEL-5 melanoma
SK-OV-3 ovarian = test system: SK-OV-3 ovarian
SN12C renal = test system: SN12C renal
SNB-19 CNS = test system: SNB-19 CNS
SR leukemia = test system: SR leukemia
T-47D breast = test system: T-47D breast
TK-10 renal = test system: TK-10 renal
U251 CNS = test system: U251 CNS
UACC-257 melanoma = test system: UACC-257 melanoma
UACC-62 melanoma = test system: UACC-62 melanoma
UO-31 renal = test system: UO-31 renal
A498 renal = test system: A498 renal
HCC-2998 colon = test system: HCC-2998 colon
HOP-92 NSCLC = test system: HOP-92 NSCLC
NCI-H226 lung = test system: NCI-H226 lung
SF-539 CNS = test system: SF-539 CNS
SNB-75 CNS = test system: SNB-75 CNS
SW-620 colon = test system: SW-620 colon

COc1ccc(C(O)(c2ccccc2)c2nccc3ccccc23)cc1 (configuration not stated)
TGI (786-0 renal): > 100 µM
TGI (A549 NSCLC): > 100 µM
TGI (ACHN renal): > 100 µM
TGI (BT-549 breast): > 100 µM
TGI (CAKI-1 renal): > 100 µM
TGI (CCRF-CEM leukemia): 8.98 µM
TGI (COLO 205 colon): > 100 µM
TGI (DU-145 prostate): > 100 µM
TGI (EKVX NSCLC): 36.9 µM
TGI (HCT-116 colon): > 100 µM
TGI (HCT-15 colon): > 100 µM
TGI (HL-60(TB) leukemia): > 100 µM
TGI (HOP-62 NSCLC): > 100 µM
TGI (HS 578T breast): > 100 µM
TGI (HT29 colon): > 100 µM
TGI (IGROV1 ovarian): > 100 µM
TGI (K-562 leukemia): > 100 µM
TGI (KM12 colon): > 100 µM
TGI (LOX IMVI melanoma): > 100 µM
TGI (M14 melanoma): 8.34 µM
TGI (MALME-3M melanoma): 7.27 µM
TGI (MCF7 breast): > 100 µM
TGI (MDA-MB-231 breast): > 100 µM
TGI (MDA-MB-435): > 100 µM
TGI (MDA-N): > 100 µM
TGI (MOLT-4 leukemia): 11.9 µM
TGI (NCI-H23 lung): > 100 µM
TGI (NCI-H460 lung): 38.9 µM
TGI (NCI-H522 lung): 30.7 µM
TGI (NCI/ADR-RES ovarian): > 100 µM
TGI (OVCAR-3 ovarian): 6.32 µM
TGI (OVCAR-4 ovarian): > 100 µM
TGI (OVCAR-5 ovarian): > 100 µM
TGI (OVCAR-8 ovarian): > 100 µM
TGI (PC-3 prostate): > 100 µM
TGI (RPMI-8226 leukemia): > 100 µM
TGI (RXF 393 renal): 44.2 µM
TGI (SF-268 CNS): > 100 µM
TGI (SF-295 CNS): > 100 µM
TGI (SK-MEL-28 melanoma): > 100 µM
TGI (SK-MEL-5 melanoma): 12.7 µM
TGI (SK-OV-3 ovarian): > 100 µM
TGI (SN12C renal): > 100 µM
TGI (SNB-19 CNS): > 100 µM
TGI (SR leukemia): > 100 µM
TGI (T-47D breast): > 100 µM
TGI (TK-10 renal): > 100 µM
TGI (U251 CNS): > 100 µM
TGI (UACC-257 melanoma): > 100 µM
TGI (UACC-62 melanoma): > 100 µM
TGI (UO-31 renal): > 100 µM

COc1cc2oc(-c3ccc4c(c3)OCO4)c(OC)c(=O)c2c(OC)c1O
TGI (786-0 renal): 43.9 µM
TGI (A498 renal): > 100 µM
TGI (A549 NSCLC): > 100 µM
TGI (ACHN renal): > 100 µM
TGI (BT-549 breast): > 100 µM
TGI (CAKI-1 renal): > 100 µM
TGI (CCRF-CEM leukemia): > 100 µM
TGI (COLO 205 colon): > 100 µM
TGI (DU-145 prostate): > 100 µM
TGI (EKVX NSCLC): > 100 µM
TGI (HCC-2998 colon): > 100 µM
TGI (HCT-116 colon): > 100 µM
TGI (HCT-15 colon): > 100 µM
TGI (HL-60(TB) leukemia): 84 µM
TGI (HOP-62 NSCLC): > 100 µM
TGI (HOP-92 NSCLC): 89.4 µM
TGI (HS 578T breast): > 100 µM
TGI (HT29 colon): > 100 µM
TGI (IGROV1 ovarian): > 100 µM
TGI (K-562 leukemia): > 100 µM
TGI (KM12 colon): > 100 µM
TGI (LOX IMVI melanoma): > 100 µM
TGI (M14 melanoma): > 100 µM
TGI (MALME-3M melanoma): > 100 µM
TGI (MCF7 breast): > 100 µM
TGI (MDA-MB-231 breast): > 100 µM
TGI (MDA-MB-435): > 100 µM
TGI (MDA-N): > 100 µM
TGI (MOLT-4 leukemia): > 100 µM
TGI (NCI-H226 lung): > 100 µM
TGI (NCI-H23 lung): > 100 µM
TGI (NCI-H460 lung): > 100 µM
TGI (NCI-H522 lung): 59.2 µM
TGI (NCI/ADR-RES ovarian): > 100 µM
TGI (OVCAR-3 ovarian): > 100 µM
TGI (OVCAR-4 ovarian): > 100 µM
TGI (OVCAR-5 ovarian): > 100 µM
TGI (OVCAR-8 ovarian): > 100 µM
TGI (PC-3 prostate): > 100 µM
TGI (RXF 393 renal): > 100 µM
TGI (SF-268 CNS): > 100 µM
TGI (SF-295 CNS): > 100 µM
TGI (SF-539 CNS): > 100 µM
TGI (SK-MEL-28 melanoma): > 100 µM
TGI (SK-MEL-5 melanoma): > 100 µM
TGI (SK-OV-3 ovarian): > 100 µM
TGI (SN12C renal): > 100 µM
TGI (SNB-19 CNS): > 100 µM
TGI (SNB-75 CNS): 97.6 µM
TGI (SW-620 colon): > 100 µM
TGI (T-47D breast): > 100 µM
TGI (TK-10 renal): > 100 µM
TGI (U251 CNS): > 100 µM
TGI (UACC-257 melanoma): > 100 µM
TGI (UACC-62 melanoma): > 100 µM
TGI (UO-31 renal): > 100 µM
